The values below come from ChEMBL document CHEMBL4715784, “Screening and biological evaluation of a novel STAT3 signaling pathway inhibitor against cancer” (Bioorg Med Chem Lett, 2016).

The source made the active and inactive calls. No cut-off for these calls is given here.

The nature of assay [1]: Binding affinity to STAT3 K591A mutant (unknown origin) expressed in Escherichia coli by CM5 sensor chip immobilization based SPR assay. More on the design: species or system Homo sapiens. On the technique in general: Surface plasmon resonance follows binding to a sensor surface in real time, without labels.
For assay [2], the system named is MDA-MB-468. As to the kind of experiment: Antiproliferative activity against human MDA-MB-468 cells harboring active STAT3 assessed as reduction in cell growth incubated for 24 hrs by CCK8 assay. The conditions noted are these: MDA-MB-468, 24 h. Format: functional, cell-based.
A further assay deals with MDA-MB-231. As to the kind of experiment: Antiproliferative activity against human MDA-MB-231 cells harboring active STAT3 assessed as reduction in cell growth incubated for 24 hrs by CCK8 assay. In kind it is functional, cell-based. The conditions noted are these: MDA-MB-231, 24 h. A general note: Tetrazolium assays rely on reduction of a dye to a coloured formazan, in cell work by metabolically active cells.

A further assay relates to DU-145. As to the kind of experiment: Antiproliferative activity against human DU-145 cells harboring active STAT3 assessed as reduction in cell growth incubated for 24 hrs by CCK8 assay. In kind it is functional, cell-based. The settings on record: DU-145, 24 h.
The subject of a further assay is MCF7. Briefly: Antiproliferative activity against human MCF7 cells assessed as reduction in cell growth incubated for 24 hrs by CCK8 assay. The settings on record: MCF7, 24 h. Format: functional, cell-based.
Assay [3] deals with T1, Signal transducer and activator of transcription 3 (Homo sapiens, UniProt P40763). Briefly: Binding affinity to STAT3 (unknown origin) expressed in Escherichia coli by CM5 sensor chip immobilization based SPR assay.
T1 sequence (P40763 whole entry): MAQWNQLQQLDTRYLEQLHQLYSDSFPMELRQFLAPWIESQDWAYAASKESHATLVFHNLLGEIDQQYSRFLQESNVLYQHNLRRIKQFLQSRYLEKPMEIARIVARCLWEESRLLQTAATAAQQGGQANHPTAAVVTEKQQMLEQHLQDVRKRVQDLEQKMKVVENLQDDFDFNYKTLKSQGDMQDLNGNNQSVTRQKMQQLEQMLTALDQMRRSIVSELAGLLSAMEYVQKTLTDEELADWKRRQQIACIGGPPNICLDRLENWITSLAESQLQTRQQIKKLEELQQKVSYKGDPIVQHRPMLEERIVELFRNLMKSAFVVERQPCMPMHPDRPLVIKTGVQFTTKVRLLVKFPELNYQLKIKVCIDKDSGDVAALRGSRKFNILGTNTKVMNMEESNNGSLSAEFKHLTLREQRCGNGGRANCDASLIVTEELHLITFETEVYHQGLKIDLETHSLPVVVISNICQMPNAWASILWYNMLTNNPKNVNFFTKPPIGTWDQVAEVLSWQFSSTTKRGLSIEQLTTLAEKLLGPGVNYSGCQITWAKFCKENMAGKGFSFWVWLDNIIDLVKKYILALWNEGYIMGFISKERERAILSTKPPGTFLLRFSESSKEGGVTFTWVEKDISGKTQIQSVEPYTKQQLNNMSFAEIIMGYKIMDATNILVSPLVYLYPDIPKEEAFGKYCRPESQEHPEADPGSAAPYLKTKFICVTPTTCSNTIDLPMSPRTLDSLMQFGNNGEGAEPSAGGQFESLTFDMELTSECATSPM
The nature of assay [4]: Binding affinity to STAT3 R595G mutant (unknown origin) expressed in Escherichia coli by CM5 sensor chip immobilization based SPR assay. The arrangement: species or system Homo sapiens.
Assay [5] in a line: Binding affinity to STAT3 C712G mutant (unknown origin) expressed in Escherichia coli by CM5 sensor chip immobilization based SPR assay. More on the design: species or system Homo sapiens.
Assay [6] in a line: Binding affinity to STAT3 K591A/S611G mutant (unknown origin) expressed in Escherichia coli by CM5 sensor chip immobilization based SPR assay. The arrangement: species or system Homo sapiens.
The nature of assay [7]: Binding affinity to STAT3 I643S/Q635G mutant (unknown origin) expressed in Escherichia coli by CM5 sensor chip immobilization based SPR assay. The arrangement: species or system Homo sapiens.
The target in assay [8] is T1, Signal transducer and activator of transcription 3. As to the kind of experiment: Inhibition of STAT3-dependent transcriptional activity in human HeLa cells transfected with p-Luc-TKS3 assessed as reduction in luciferase expression incubated for 24 hrs by dual luciferase reporter gene assay. Format: cell-based. (In a reporter assay the amount or activity of a reporter protein is the signal.)

Assay [9] shares this target. As to the kind of experiment: Inhibition of STAT3 in human MDA-MB-468 cells assessed as reduction in STAT3 Y705 residue phosphorylation incubated for 24 hrs by Western blot analysis. In kind it is cell-based. The conditions noted are these: dose 1-30 µM.
Assay [10] has as its system MDA-MB-468. As to the kind of experiment: Effect on STAT3 expression in human MDA-MB-468 cells at 1 to 30 uM incubated for 24 hrs by Western blot analysis. In kind it is functional, cell-based. The conditions noted are these: dose 1-30 µM.
The target in assay [11] is T2, Signal transducer and activator of transcription 1-alpha/beta (Homo sapiens) (UniProt P42224).
T2 sequence (whole entry): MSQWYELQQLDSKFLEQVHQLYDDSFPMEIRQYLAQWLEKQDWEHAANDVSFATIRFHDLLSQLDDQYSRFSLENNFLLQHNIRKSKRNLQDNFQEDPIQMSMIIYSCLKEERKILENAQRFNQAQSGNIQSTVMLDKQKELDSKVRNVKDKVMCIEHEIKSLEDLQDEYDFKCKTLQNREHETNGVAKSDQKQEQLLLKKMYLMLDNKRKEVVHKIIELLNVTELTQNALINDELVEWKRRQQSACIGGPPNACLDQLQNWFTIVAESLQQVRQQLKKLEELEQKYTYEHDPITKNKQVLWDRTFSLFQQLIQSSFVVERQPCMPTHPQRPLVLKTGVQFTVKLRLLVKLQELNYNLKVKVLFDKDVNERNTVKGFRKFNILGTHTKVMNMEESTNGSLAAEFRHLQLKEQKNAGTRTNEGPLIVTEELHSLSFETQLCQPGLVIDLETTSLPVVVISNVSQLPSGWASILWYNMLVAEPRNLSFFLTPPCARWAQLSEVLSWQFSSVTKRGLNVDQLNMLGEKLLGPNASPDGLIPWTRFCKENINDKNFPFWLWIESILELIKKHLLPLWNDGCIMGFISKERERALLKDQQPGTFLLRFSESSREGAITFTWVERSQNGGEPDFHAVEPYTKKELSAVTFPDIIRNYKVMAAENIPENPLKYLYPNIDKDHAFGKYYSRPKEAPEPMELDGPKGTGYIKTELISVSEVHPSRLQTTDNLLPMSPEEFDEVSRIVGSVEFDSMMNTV
As to the kind of experiment: Inhibition of STAT1 in human MDA-MB-468 cells assessed as reduction in STAT1 phosphorylation at 1 to 30 uM incubated for 24 hrs by Western blot analysis. Format: cell-based. The settings on record: dose 1-30 µM.

The target of assay [12] is T3, Signal transducer and activator of transcription 5A (Homo sapiens) (UniProt P42229).
T3 sequence (whole entry): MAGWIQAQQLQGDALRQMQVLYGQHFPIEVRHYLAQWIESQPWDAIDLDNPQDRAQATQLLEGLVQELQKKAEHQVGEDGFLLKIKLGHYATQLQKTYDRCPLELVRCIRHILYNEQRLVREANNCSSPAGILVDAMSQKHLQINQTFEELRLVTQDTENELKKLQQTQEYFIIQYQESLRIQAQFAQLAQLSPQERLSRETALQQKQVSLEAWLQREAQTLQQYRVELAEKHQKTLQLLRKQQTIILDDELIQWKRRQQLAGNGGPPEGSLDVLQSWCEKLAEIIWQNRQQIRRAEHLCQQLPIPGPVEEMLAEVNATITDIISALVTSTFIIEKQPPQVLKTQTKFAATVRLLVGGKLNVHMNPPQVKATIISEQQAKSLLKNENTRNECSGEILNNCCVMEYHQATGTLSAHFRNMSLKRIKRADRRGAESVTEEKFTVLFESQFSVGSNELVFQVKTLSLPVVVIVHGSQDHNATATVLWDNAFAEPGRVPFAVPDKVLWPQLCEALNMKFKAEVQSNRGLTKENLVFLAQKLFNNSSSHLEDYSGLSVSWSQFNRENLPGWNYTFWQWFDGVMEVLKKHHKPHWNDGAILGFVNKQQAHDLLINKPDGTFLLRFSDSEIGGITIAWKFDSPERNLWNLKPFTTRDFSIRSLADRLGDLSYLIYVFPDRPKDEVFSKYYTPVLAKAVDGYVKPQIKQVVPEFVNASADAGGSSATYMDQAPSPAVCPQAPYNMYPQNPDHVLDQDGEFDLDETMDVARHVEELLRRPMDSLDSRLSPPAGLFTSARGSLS
As to the kind of experiment: Inhibition of STAT5 in human MDA-MB-468 cells assessed as reduction in STAT5 phosphorylation at 1 to 30 uM incubated for 24 hrs by Western blot analysis. In kind it is cell-based. The conditions noted are these: dose 1-30 µM.

Assay [13] addresses T1, Signal transducer and activator of transcription 3. As to the kind of experiment: Inhibition of STAT3 in human MDA-MB-468 cells assessed as reduction in Bcl-XL expression at 1 to 30 uM incubated for 24 hrs by Western blot analysis. In kind it is cell-based. The conditions noted are these: dose 1-30 µM.
The subject of assay [14] is MDA-MB-468. As to the kind of experiment: Antimigratory activity against human MDA-MB-468 cells assessed as reduction in cell migration incubated for 24 hrs by transwell study based analysis. In kind it is functional. The settings on record: dose 10-30 µM.
Assay [15] deals with T1, Signal transducer and activator of transcription 3. Briefly: Displacement of fluorescein-labeled pYLPQTV-NH2 from STAT3 SH2 domain (unknown origin) by fluorescence polarization assay.
The species entered for the next assay is Homo sapiens. Briefly: Selectivity ratio of Kd for STAT3 I643S/Q635G mutant (unknown origin) expressed in Escherichia coli to Kd for wild type STAT3 (unknown origin) expressed in Escherichia coli by CM5 sensor chip immobilization based SPR assay.

Broadly, the Kd is the free concentration of one partner at which half of the binding sites on the other are occupied at equilibrium, for simple one-to-one binding. In general, IC50 refers to the concentration at which inhibition is half-maximal. With `O=C1c2ccccc2C(=O)c2cc(S(=O)(=O)Nc3ccc(O)cc3)ccc21`, the equilibrium dissociation constant (Kd) in assay [1] turned out to be 3.84 µM; in assay [3], 4.59 µM; in [4], 6.53 µM; in assay [5] it was 18.5 µM; in assay [6] it was 4.8 µM; in [7] it was 22.7 µM. The IC50 in the assay on MDA-MB-468 [2] was determined as 5.1 µM; in the assay with MDA-MB-231, 13.8 µM; with DU-145 it was 63.8 µM; in the assay on MCF7, 134 µM; in assay [8], 12.5 µM. The Activity result (in assay [3]; in the assay on MDA-MB-468 [14]) was “Dose-dependent effect” in each case. The inhibition entry in assay [8] and in [9] was “Dose-dependent effect” throughout. Also, the outcome in the assay on MDA-MB-468 [10] was inactive. Further, the inhibition result in assay [11], in assay [12], in assay [13] and in assay [15] was “Active” in each case. Also, the Selectivity ratio in the assay filed under Homo sapiens was 4.
